Experimental data published in patent publication US20250228241A1, “P[…] COMPOUND OR SALT THEREOF, PEST CONTROL AGENT CONTAINING SAID COMPOUND AS ACTIVE INGREDIENT, AND PEST CONTROL METHOD” (NIHON NOHYAKU CO., LTD., priority 2021, published 2025).

What was measured:
Type in all cases: in vivo
[1] = system: smaller brown planthopper (Laodelphax striatellus); experiment: Insecticidal test against the smaller brown planthopper (rice seedling immersion); conditions: 500 ppm, rice seedling immersed 30 seconds, third instar nymphs, eight days after
Source text: The present inventive compound was dispersed in water to adjust the concentration to 500 ppm and a rice seedling was immersed therein for 30 seconds; after air dried, the seedling was put in a test tube, 10 third instar nymphs were inoculated and the test tube was sealed with a cotton plug. Eight days after, the alive and dead insects were counted to calculate the corrected mortality according to the following equation and the insecticidal effect was judged according to the criterion shown below.
(§1) The Comparative test compound was tested in the same way, and the corrected mortality was calculated and judged.
(§2) [formula] • Criterion: A: Corrected mortality 100% • B: Corrected mortality 99%-90% • C: Corrected mortality 89%-80% • D: Corrected mortality 79%-50%

[2] = system: diamond back moth (Plutella xylostella); experiment: Insecticidal test against the diamond back moth (Chinese cabbage seedling with eggs, immersion); conditions: 500 ppm, seedling with eggs immersed about 30 seconds, 25° C., six days after immersion
Method: The adult diamond back moths were released and allowed to oviposit on a Chinese cabbage seedling. Two days after the release, the seedling having the eggs deposited thereon was immersed for about 30 seconds in a liquid chemical prepared by diluting a preparation containing the present inventive compound as an active ingredient to adjust the concentration to 500 ppm. After air dried, it was allowed to stand in a room thermostatted at 25° C. Six days after the immersion, the alive insects were counted. The corrected mortality was calculated according to the following equation and the insecticidal effect was judged according to the criterion shown below. The test was carried out with triplicate groups.
as §1, §2

[3] = system: green peach aphid (Myzus persicae); experiment: Control value test against the green peach aphid (foliar spray on Chinese cabbage); conditions: 500 ppm spray on stems and leaves of Chinese cabbage, 6th day after spray
Source text: Chinese cabbage was planted in plastic pots with a diameter of 8 cm and a height of 8 cm to breed green peach aphids, and the number of the infesting aphids in each pot was investigated. The present inventive compound was dispersed in water and diluted to a 500 ppm chemical solution, and the chemical solution was sprayed on the stems and leaves of the Chinese cabbage plants planted in the pots. After air drying, the pots were kept in a greenhouse. On the 6th day after the spray of the chemical solution, the number of the green peach aphids infesting on each Chinese cabbage plant was counted and the control value was calculated on the following equation, whereby the effect was judged according to the criterion below.
The Comparative test compound was tested in the same way, and the control value was calculated and judged.
[formula] • Ta: number of infestants before spraying in the treated group, • T: number of infestants after spraying in the treated group, • Ca: number of infestants before spraying in the untreated group, • C: number of infestants after spraying in the untreated group.
• A: Control value 100% • B: Control value 99-90% • C: Control value 89-80% • D: Control value 79-50%

[4] = system: common cutworm (Spodoptera litura); experiment: Insecticidal test against the common cutworm (cabbage leaf dip); conditions: 500 ppm, cabbage leaf dipped about 30 seconds, second-instar larvae, 25° C., eight days after inoculation
Method: A piece of cabbage leaf (cultivar; Shikidori) was dipped for about 30 seconds in a chemical solution prepared by diluting a preparation containing the present inventive compound as an active ingredient to adjust the concentration to 500 ppm. After air dried, it was placed in a plastic Petri dish with a diameter of 9 cm and inoculated with second-instar larvae of common cutworm, after which the dish was closed and then allowed to stand in a room thermostatted at 25° C. Eight days after the inoculation, the number of the alive insects were counted. The corrected mortality was calculated according to the following equation and the insecticidal effect was judged according to the following criterion. The test was carried out with triplicate groups of 10 insects.
as §1, §2

[5] = system: Western honeybees (Apis mellifera); experiment: Safety test for the Western honeybee (oral acute toxicity test)
Method: Seven to ten adult Western honeybees (Apis mellifera) were released in a plastic cage (8 cm×12 cm×20 cm), and after fasting for 2 hours, they were oral administered, using a 1.5 ml microtube, with a 50% sucrose solution as a test bait containing a chemical solution of a predetermined concentration. Four hours after the administration, the test bait was taken out, and the amount of the compound taken per animal was calculated from the remaining amount. At the same time, the animals were fed with a sufficient amount of 50% sucrose solution, maintained at 25° C., H55-75%, 16L8D. The numbers of dead and abnormal insects were counted after 24, 48 and 96 hours to calculate the median lethal dose (LD50 value). The untreated group was fed with a 50% sucrose solution […] and was maintained under the same conditions as the chemical-treated group.

SMILES | corrected mortality (activity class) [1] | corrected mortality (activity class) [2] | control value (activity class) [3] | corrected mortality (activity class) [4] | improvement in safety for the Western honeybee compared with the comparative compound ([5]; from oral LD50 values after 96 hours) | LD50 value for one adult honeybee ([5]; oral, after 96 hours, per adult honeybee) [µg]
C[C@H](NC(=O)c1cc(C(F)(F)F)cc(C(F)(F)F)c1)c1ncnn1-c1ncccn1 [comparative compound, (S)—N-(1-(1-(pyrimidin-2-yl)-1H-1,2,4-triazol-5-yl)ethyl)-3,5-bis(trifluoromethyl)benzamide, reference compound] | B or higher | B or higher | B or higher | B or higher | – | –
C[C@H](NC(=O)c1cc(C(F)(F)F)cc(C(F)(F)F)c1)c1ncnn1-c1cc(C(F)(F)F)ncn1 [present inventive compound, (S)—N-(1-(1-(6-trifluoromethylpyrimidin-4-yl)-1H-1,2,4-triazol-5-yl)ethyl)-3,5-bis(trifluoromethyl)benzamide] | B or higher | B or higher | B or higher | B or higher | more than 200 times | 2.04
